Measured values taken from patent US12157810B1 (priority 2020, dated 2024).

System: cell culture

In the case of “poly(alloocimene-b-isobutylene-b-alloocimene) [AIBA]”, the “cytotoxicity in cell culture studies” value is reported as “non-cytotoxicity”.
